Test results as given in PubChem BioAssay (NCI).
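The compound was tested at five concentrations on cells cultured in 96-well plates, with a 48-hour exposure period. TGI is the concentration that stops growth completely.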

Columns and labels:
Test in all cases: NCI tumour cell line growth inhibition, 48 h
M19-MEL melanoma = test system: M19-MEL melanoma
HOP-18 NSCLC = test system: HOP-18 NSCLC
SNB-78 CNS = test system: SNB-78 CNS
LXFL 529 NSCLC = test system: LXFL 529 NSCLC
DLD-1 colon = test system: DLD-1 colon
DMS 273 small cell lung = test system: DMS 273 small cell lung
XF 498 CNS = test system: XF 498 CNS
SN12K1 renal = test system: SN12K1 renal
P388/ADR leukemia = test system: P388/ADR leukemia
P388 leukemia = test system: P388 leukemia

Compound | TGI (M19-MEL melanoma) [µM] | TGI (HOP-18 NSCLC) [µM] | TGI (SNB-78 CNS) [µM] | TGI (LXFL 529 NSCLC) [µM] | TGI (DLD-1 colon) [µM] | TGI (DMS 273 small cell lung) [µM] | TGI (XF 498 CNS) [µM] | TGI (SN12K1 renal) [µM] | TGI (P388/ADR leukemia) [µM] | TGI (P388 leukemia) [µM]
CC(C)C(N)=O | > 5000 | > 5000 | > 5000 | > 5000 | > 5000 | > 5000 | – | – | – | –
O=C1CCCCCCCCCCC1CN1CCCCC1 (configuration not stated) | > 100 | – | > 100 | > 100 | > 100 | > 100 | > 100 | – | – | –
CCCCCCCCCCCCOCCCOP(=O)([O-])OCC[N+](C)(C)C | > 100 | > 100 | > 89.5 | – | > 95.8 | 35.5 | > 89.4 | > 100 | > 100 | 97.7
CC(C)C1=CC23CCC4C(C)(C(=O)O)CCCC4(C)C2CC1C1C(=O)N(c2ccccc2)C(=O)C13 (configuration not stated) | > 100 | > 100 | – | > 100 | > 100 | > 100 | > 100 | – | – | –
